Common to all, as to assay type: cell-based
For experiment [1], the target named is T1, HRH2 (Homo sapiens, UniProt P25021). Put plainly: H2 blockade assay: cAMP assay, antagonist mode (agonist challenge at EC80). Conditions: for antagonist activity against H2 (in words): in-vitro. The protocol:
The cAMP assays can monitor the activation of a GPCR via Gi and Gs secondary messenger signalling in a homogenous, non-imaging assay format using, for example, a technology developed by DiscoverX called Enzyme Fragment Complementation (EFC) with β-galactosidase (β-Gal) as the functional reporter.
The cannabinoid-based pharmaceutical composition according to FIG. 1 was subjected to an H2 blockade assay. For antagonist determination, cells were pre-incubated with sample followed by agonist challenge at the EC80 concentration. Media was aspirated from cells and replaced with 10 μL 1:1 BSS/Hepes: cAMP XS+ Ab reagent. 5 μL of 4X compound was added to the cells and incubated at […] or room temperature for 30 minutes. 5 μL of 4X EC80 agonist was added to cells and incubated at 37° C. or room temperature for 30 or 60 minutes.
The enzyme is split into two complementary portions, Enzyme Acceptor (EA) and Enzyme Donor (ED). ED is fused to cAMP and in the assay competes with cAMP generated by cells for binding to a cAMP-specific antibody. Active β-Gal is formed by complementation of exogenous EA to any unbound ED-cAMP.

Experiment [2] concerns the target T1, HRH2. The experiment in a line: cAMP assay, agonist mode. Conditions: for % Response Average / % Response Replicate 1 / % Response Replicate 2: 10 uM, cAMP, HRH2, Agonist mode. Background: Cyclic AMP is a second messenger, typically raised through Gs and lowered through Gi signalling.
In experiment [3] the target is T2, HRH1 (Homo sapiens, UniProt P35367). The experiment in a line: Calcium Flux assay, agonist mode. Conditions: for % Response Average / % Response Replicate 1 / % Response Replicate 2: 10 uM, Calcium Flux, HRH1, Agonist mode.
T2 sequence (P35367 whole entry): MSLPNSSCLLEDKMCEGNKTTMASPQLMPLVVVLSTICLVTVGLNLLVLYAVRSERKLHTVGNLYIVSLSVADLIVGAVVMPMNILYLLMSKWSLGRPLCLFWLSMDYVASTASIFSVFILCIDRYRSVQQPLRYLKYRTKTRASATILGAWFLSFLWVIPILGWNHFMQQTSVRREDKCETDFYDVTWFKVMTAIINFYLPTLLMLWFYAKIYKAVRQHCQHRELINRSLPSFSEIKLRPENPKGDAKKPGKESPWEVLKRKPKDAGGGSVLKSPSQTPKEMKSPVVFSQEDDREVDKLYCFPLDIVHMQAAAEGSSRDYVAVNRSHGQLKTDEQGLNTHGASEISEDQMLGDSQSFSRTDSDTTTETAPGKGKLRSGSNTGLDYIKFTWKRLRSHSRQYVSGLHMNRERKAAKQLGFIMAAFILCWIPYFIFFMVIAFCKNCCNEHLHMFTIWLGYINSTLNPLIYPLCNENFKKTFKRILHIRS
The target in experiment [4] is T2, HRH1. The experiment in a line: Calcium Flux assay, antagonist mode. Conditions: for % Response Average / % Response Replicate 1 / % Response Replicate 2: 10 uM, Calcium Flux, HRH1, Antagonist mode; for antagonist activity against H1 (in words): single concentration of 10 μM.
The mark [5] stands for this setting: 10 uM, cAMP, HRH2, Antagonist mode.

Structures are written as SMILES.

T1 sequence (P25021 whole entry, the tested form may be a part): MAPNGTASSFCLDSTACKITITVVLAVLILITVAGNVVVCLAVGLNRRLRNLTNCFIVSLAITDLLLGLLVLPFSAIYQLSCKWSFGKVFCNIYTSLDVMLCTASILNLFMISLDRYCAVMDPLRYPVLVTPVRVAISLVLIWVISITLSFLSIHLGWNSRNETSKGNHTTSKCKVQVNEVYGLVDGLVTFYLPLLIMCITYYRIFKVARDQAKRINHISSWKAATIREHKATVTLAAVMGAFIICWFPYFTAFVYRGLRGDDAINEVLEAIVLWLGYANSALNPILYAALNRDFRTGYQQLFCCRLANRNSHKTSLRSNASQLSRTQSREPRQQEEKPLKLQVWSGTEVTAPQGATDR

In general, IC50 refers to the midpoint of a concentration-inhibition curve. A low value points to higher potency. Molecule `C=C(C)[C@@H]1CCC(C)=C[C@H]1c1c(O)cc(CCCCC)cc1O` [CBD, Cannabidiol] registered an IC50 on HRH2 [1] (dose-response / concentration dependent assay) of 1530 nM. Further, the “antagonist activity against H2 (in words)” value at HRH2 [1] was “potent antagonist”. Besides, the inhibition at 10 µM on HRH2 [1] (preliminary assay, single concentration of 10 μM, read-out: inhibited H2 by %) came to 91.5%. In addition, at HRH2 [2], the “% Response Average” value worked out at 5.1%, the “% Response Replicate 1” value is 4.7% and the “% Response Replicate 2” value was 5.5%. Also, the “agonist activity against H2 (in words)” value on HRH2 [2] (single concentration of 10 μM) is given as “no agonist activity”. At HRH1 [3], the “% Response Average” value is 0.3%, the “% Response Replicate 1” value came to 0.3% and the “% Response Replicate 2” value is reported as 0.2%. For the same molecule, at HRH1 [3] (single concentration of 10 μM), the “agonist activity against H1 (in words)” value was “no agonist or antagonist activity”. Further, on HRH1 [4], the “% Response Average” value is recorded as 10.1%, the “% Response Replicate 1” value is 7.6%, the “% Response Replicate 2” value is recorded as 12.5% and the “antagonist activity against H1 (in words)” value is “no agonist or antagonist activity”.
On to `CCCCCc1cc(O)c2c(c1)OC(C)(C)[C@@H]1CCC(C)=C[C@@H]21` [THC, Tetrahydrocannabinol, reference compound], for which, at HRH2 [1] (setting [5]), the “% Response Average” value stood at 7.7%, the “% Response Replicate 1” value is −2.0% and the “% Response Replicate 2” value stood at 17.3%. The “antagonist activity against H2 (in words)” value on HRH2 [1] was “none”. Moreover, at HRH2 [2], the “% Response Average” value was 3.2%, the “% Response Replicate 1” value is 4.3% and the “% Response Replicate 2” value was found to be 2.0%. Also, at HRH1 [3], the “% Response Average” value is given as −0.7%, the “% Response Replicate 1” value was −0.5% and the “% Response Replicate 2” value is listed as −0.9%. Besides, on HRH1 [4], the “% Response Average” value is 78.2%, the “% Response Replicate 1” value is recorded as 77.0%, the “% Response Replicate 2” value turned out to be 79.3% and the “antagonist activity against H1 (in words)” value is on record as “showed antagonist activity”.

Source of the values: patent publication US20210369642A1, “THERAPEUTIC CANNABINOID DERIVATIVES COMPOSITION AS HISTAMINE 2 (H2) BLOCKING AGENTS” (priority 2018, published 2021).
